System: Abutilon theophrasti
Experiment: Weeding effect in post-emergence stage
Assay type: in vivo
Settings: Dose 15 g/ha; fresh weight control rate level
Outline: (§1)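 Seeds are sown in soil-filled pots under 0.5-2 cm soil and grown 2 weeks in greenhouse. Plants at 2-3 leaves are sprayed with compound (acetone, Tween 80, 1.5 liter/ha methyl oleate EC, water) at 7.5 to 500 g/ha. Damage is rated 3 weeks later, averaging three repeats.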

Structure (SMILES) | Weeding effect in post-emergence stage, Abutilon theophrasti (level)
C#CCCOC(=O)[C@@H](C)O/N=C/c1cc(-n2c(=O)cc(C(F)(F)F)n(C)c2=O)c(F)cc1Cl [442(R)] | 5 (Level 5: growth control rate is above 85%)
CC(C#N)OC(=O)[C@@H](C)O/N=C/c1cc(-n2c(=O)cc(C(F)(F)F)n(C)c2=O)c(F)cc1Cl (stereo partly drawn) [443(R)] | 5 (Level 5: growth control rate is above 85%)
CC(CC#N)OC(=O)[C@@H](C)O/N=C/c1cc(-n2c(=O)cc(C(F)(F)F)n(C)c2=O)c(F)cc1Cl (stereo partly drawn) [444(R)] | 5 (Level 5: growth control rate is above 85%)
CC(C#N)COC(=O)[C@@H](C)O/N=C/c1cc(-n2c(=O)cc(C(F)(F)F)n(C)c2=O)c(F)cc1Cl (stereo partly drawn) [445(R)] | 5 (Level 5: growth control rate is above 85%)
C[C@@H](O/N=C/c1cc(-n2c(=O)cc(C(F)(F)F)n(C)c2=O)c(F)cc1Cl)C(=O)OCCCC#N [446(R)] | 5 (Level 5: growth control rate is above 85%)
C[C@@H](O/N=C/c1cc(-n2c(=O)cc(C(F)(F)F)n(C)c2=O)c(F)cc1Cl)C(=O)OCC1(C#N)CC1 [447(R)] | 5 (Level 5: growth control rate is above 85%)
C[C@@H](O/N=C/c1cc(-n2c(=O)cc(C(F)(F)F)n(C)c2=O)c(F)cc1Cl)C(=O)OCCN(C)C [448(R)] | 5 (Level 5: growth control rate is above 85%)

System: Alopecurus japonicus
Experiment: Weeding effect in post-emergence stage
Assay type: in vivo
Settings: Dose 15 g/ha; fresh weight control rate level
Outline: as §1

Structure (SMILES) | Weeding effect in post-emergence stage, Alopecurus japonicus (level)
C#CCCOC(=O)[C@@H](C)O/N=C/c1cc(-n2c(=O)cc(C(F)(F)F)n(C)c2=O)c(F)cc1Cl [442(R)] | 5 (Level 5: growth control rate is above 85%)
CC(C#N)OC(=O)[C@@H](C)O/N=C/c1cc(-n2c(=O)cc(C(F)(F)F)n(C)c2=O)c(F)cc1Cl (stereo partly drawn) [443(R)] | 5 (Level 5: growth control rate is above 85%)
CC(CC#N)OC(=O)[C@@H](C)O/N=C/c1cc(-n2c(=O)cc(C(F)(F)F)n(C)c2=O)c(F)cc1Cl (stereo partly drawn) [444(R)] | 5 (Level 5: growth control rate is above 85%)
CC(C#N)COC(=O)[C@@H](C)O/N=C/c1cc(-n2c(=O)cc(C(F)(F)F)n(C)c2=O)c(F)cc1Cl (stereo partly drawn) [445(R)] | 5 (Level 5: growth control rate is above 85%)
C[C@@H](O/N=C/c1cc(-n2c(=O)cc(C(F)(F)F)n(C)c2=O)c(F)cc1Cl)C(=O)OCCCC#N [446(R)] | 5 (Level 5: growth control rate is above 85%)
C[C@@H](O/N=C/c1cc(-n2c(=O)cc(C(F)(F)F)n(C)c2=O)c(F)cc1Cl)C(=O)OCC1(C#N)CC1 [447(R)] | 5 (Level 5: growth control rate is above 85%)
C[C@@H](O/N=C/c1cc(-n2c(=O)cc(C(F)(F)F)n(C)c2=O)c(F)cc1Cl)C(=O)OCCN(C)C [448(R)] | 5 (Level 5: growth control rate is above 85%)

System: Digitaria sanguinalis
Experiment: Weeding effect in post-emergence stage
Assay type: in vivo
Settings: Dose 15 g/ha; fresh weight control rate level
Outline: as §1

Structure (SMILES) | Weeding effect in post-emergence stage, Digitaria sanguinalis (level)
C#CCCOC(=O)[C@@H](C)O/N=C/c1cc(-n2c(=O)cc(C(F)(F)F)n(C)c2=O)c(F)cc1Cl [442(R)] | 5 (Level 5: growth control rate is above 85%)
CC(C#N)OC(=O)[C@@H](C)O/N=C/c1cc(-n2c(=O)cc(C(F)(F)F)n(C)c2=O)c(F)cc1Cl (stereo partly drawn) [443(R)] | 5 (Level 5: growth control rate is above 85%)
CC(CC#N)OC(=O)[C@@H](C)O/N=C/c1cc(-n2c(=O)cc(C(F)(F)F)n(C)c2=O)c(F)cc1Cl (stereo partly drawn) [444(R)] | 5 (Level 5: growth control rate is above 85%)
CC(C#N)COC(=O)[C@@H](C)O/N=C/c1cc(-n2c(=O)cc(C(F)(F)F)n(C)c2=O)c(F)cc1Cl (stereo partly drawn) [445(R)] | 5 (Level 5: growth control rate is above 85%)
C[C@@H](O/N=C/c1cc(-n2c(=O)cc(C(F)(F)F)n(C)c2=O)c(F)cc1Cl)C(=O)OCCCC#N [446(R)] | 5 (Level 5: growth control rate is above 85%)
C[C@@H](O/N=C/c1cc(-n2c(=O)cc(C(F)(F)F)n(C)c2=O)c(F)cc1Cl)C(=O)OCC1(C#N)CC1 [447(R)] | 5 (Level 5: growth control rate is above 85%)
C[C@@H](O/N=C/c1cc(-n2c(=O)cc(C(F)(F)F)n(C)c2=O)c(F)cc1Cl)C(=O)OCCN(C)C [448(R)] | 5 (Level 5: growth control rate is above 85%)

System: Eleusine indica
Experiment: Weeding effect in post-emergence stage
Assay type: in vivo
Settings: Dose 15 g/ha; fresh weight control rate level
Outline: as §1

Structure (SMILES) | Weeding effect in post-emergence stage, Eleusine indica (level)
C#CCCOC(=O)[C@@H](C)O/N=C/c1cc(-n2c(=O)cc(C(F)(F)F)n(C)c2=O)c(F)cc1Cl [442(R)] | 5 (Level 5: growth control rate is above 85%)
CC(C#N)OC(=O)[C@@H](C)O/N=C/c1cc(-n2c(=O)cc(C(F)(F)F)n(C)c2=O)c(F)cc1Cl (stereo partly drawn) [443(R)] | 5 (Level 5: growth control rate is above 85%)
CC(CC#N)OC(=O)[C@@H](C)O/N=C/c1cc(-n2c(=O)cc(C(F)(F)F)n(C)c2=O)c(F)cc1Cl (stereo partly drawn) [444(R)] | 5 (Level 5: growth control rate is above 85%)
CC(C#N)COC(=O)[C@@H](C)O/N=C/c1cc(-n2c(=O)cc(C(F)(F)F)n(C)c2=O)c(F)cc1Cl (stereo partly drawn) [445(R)] | 5 (Level 5: growth control rate is above 85%)
C[C@@H](O/N=C/c1cc(-n2c(=O)cc(C(F)(F)F)n(C)c2=O)c(F)cc1Cl)C(=O)OCCCC#N [446(R)] | 5 (Level 5: growth control rate is above 85%)
C[C@@H](O/N=C/c1cc(-n2c(=O)cc(C(F)(F)F)n(C)c2=O)c(F)cc1Cl)C(=O)OCC1(C#N)CC1 [447(R)] | 5 (Level 5: growth control rate is above 85%)
C[C@@H](O/N=C/c1cc(-n2c(=O)cc(C(F)(F)F)n(C)c2=O)c(F)cc1Cl)C(=O)OCCN(C)C [448(R)] | 5 (Level 5: growth control rate is above 85%)

System: Setaria viridis
Experiment: Weeding effect in post-emergence stage
Assay type: in vivo
Settings: Dose 15 g/ha; fresh weight control rate level
Outline: as §1

Structure (SMILES) | Weeding effect in post-emergence stage, Setaria viridis (level)
C#CCCOC(=O)[C@@H](C)O/N=C/c1cc(-n2c(=O)cc(C(F)(F)F)n(C)c2=O)c(F)cc1Cl [442(R)] | 5 (Level 5: growth control rate is above 85%)
CC(C#N)OC(=O)[C@@H](C)O/N=C/c1cc(-n2c(=O)cc(C(F)(F)F)n(C)c2=O)c(F)cc1Cl (stereo partly drawn) [443(R)] | 5 (Level 5: growth control rate is above 85%)
CC(CC#N)OC(=O)[C@@H](C)O/N=C/c1cc(-n2c(=O)cc(C(F)(F)F)n(C)c2=O)c(F)cc1Cl (stereo partly drawn) [444(R)] | 5 (Level 5: growth control rate is above 85%)
CC(C#N)COC(=O)[C@@H](C)O/N=C/c1cc(-n2c(=O)cc(C(F)(F)F)n(C)c2=O)c(F)cc1Cl (stereo partly drawn) [445(R)] | 5 (Level 5: growth control rate is above 85%)
C[C@@H](O/N=C/c1cc(-n2c(=O)cc(C(F)(F)F)n(C)c2=O)c(F)cc1Cl)C(=O)OCCCC#N [446(R)] | 5 (Level 5: growth control rate is above 85%)
C[C@@H](O/N=C/c1cc(-n2c(=O)cc(C(F)(F)F)n(C)c2=O)c(F)cc1Cl)C(=O)OCC1(C#N)CC1 [447(R)] | 5 (Level 5: growth control rate is above 85%)
C[C@@H](O/N=C/c1cc(-n2c(=O)cc(C(F)(F)F)n(C)c2=O)c(F)cc1Cl)C(=O)OCCN(C)C [448(R)] | 5 (Level 5: growth control rate is above 85%)

System: Echinochloa crusgalli
Experiment: Weeding effect in post-emergence stage
Assay type: in vivo
Settings: Dose 15 g/ha; fresh weight control rate level
Outline: as §1

Structure (SMILES) | Weeding effect in post-emergence stage, Echinochloa crusgalli (level)
C#CCCOC(=O)[C@@H](C)O/N=C/c1cc(-n2c(=O)cc(C(F)(F)F)n(C)c2=O)c(F)cc1Cl [442(R)] | 5 (Level 5: growth control rate is above 85%)
CC(C#N)OC(=O)[C@@H](C)O/N=C/c1cc(-n2c(=O)cc(C(F)(F)F)n(C)c2=O)c(F)cc1Cl (stereo partly drawn) [443(R)] | 5 (Level 5: growth control rate is above 85%)
CC(CC#N)OC(=O)[C@@H](C)O/N=C/c1cc(-n2c(=O)cc(C(F)(F)F)n(C)c2=O)c(F)cc1Cl (stereo partly drawn) [444(R)] | 5 (Level 5: growth control rate is above 85%)
CC(C#N)COC(=O)[C@@H](C)O/N=C/c1cc(-n2c(=O)cc(C(F)(F)F)n(C)c2=O)c(F)cc1Cl (stereo partly drawn) [445(R)] | 5 (Level 5: growth control rate is above 85%)
C[C@@H](O/N=C/c1cc(-n2c(=O)cc(C(F)(F)F)n(C)c2=O)c(F)cc1Cl)C(=O)OCCCC#N [446(R)] | 5 (Level 5: growth control rate is above 85%)
C[C@@H](O/N=C/c1cc(-n2c(=O)cc(C(F)(F)F)n(C)c2=O)c(F)cc1Cl)C(=O)OCC1(C#N)CC1 [447(R)] | 5 (Level 5: growth control rate is above 85%)
C[C@@H](O/N=C/c1cc(-n2c(=O)cc(C(F)(F)F)n(C)c2=O)c(F)cc1Cl)C(=O)OCCN(C)C [448(R)] | 5 (Level 5: growth control rate is above 85%)
